Experimental data taken from article PMC3634983 (Clinical Drug Investigation, 2013).
Where two headings read alike, the source gives them in different places.

Columns and labels:
[1] = assay type: in vivo, human; conditions: for detectability in plasma: after single oral doses of dabigatran etexilate; for AUC(0-inf) / Cmax / Tmax: human, plasma, po
[2] = tested on: isolated guinea pig papillary muscles; conditions: concentrations up to 10 μmol/L; cited from earlier work
[3] = cited from earlier work
[4] = tested on: hERG-mediated potassium current; conditions: human embryonic kidney cells; cited from earlier work
anaesthetised pigs = conditions: up to 3 mg/kg intravenously; cited from earlier work
healthy subjects [5] = assay type: in vivo, human
healthy subjects [6] = experiment: Thorough QT study: ECG profiles; assay type: in vivo, human; conditions: for ∆∆HR / ∆∆QT / ∆∆QTcI: mean (90 % CI); for Adjusted mean (SE) ∆ QTcI: time-matched change from baseline between 1.5 and 3 h post-dose, n=40
healthy subjects [7] = experiment: Safety and tolerability evaluation; assay type: in vivo, human
[8] = following an oral dose without food; cited from earlier work
healthy subjects [9] = conditions: after a single dose; cited from earlier work
[10] = cited from earlier work; remark: listed apart in the source
[11] = tested on: activated partial thromboplastin time; conditions: 600 mg dose; achieved at 2–4 h post-dose; pilot study; cited from earlier work
[12] = at gMean Cmax of dabigatran etexilate 150 mg dose
[13] = at gMean Cmax of dabigatran etexilate 600 mg dose
[14] = exposure-response analysis for placebo-corrected CfB of HR, post hoc
[15] = exposure-response analysis for placebo-corrected CfB of QTcI, post hoc
[16] = moxifloxacin 400 mg, 1:00 h post-dose
[17] = moxifloxacin 400 mg, 1:30 h post-dose
[18] = moxifloxacin 400 mg, 2:00 h post-dose
[19] = moxifloxacin 400 mg, 3:00 h post-dose
[20] = moxifloxacin 400 mg, 6:00 h post-dose
[21] = dabigatran etexilate 150 mg, 1:00 h post-dose
[22] = dabigatran etexilate 150 mg, 1:30 h post-dose
[23] = dabigatran etexilate 150 mg, 2:00 h post-dose
[24] = dabigatran etexilate 150 mg, 3:00 h post-dose
[25] = dabigatran etexilate 150 mg, 6:00 h post-dose
[26] = dabigatran etexilate 150 mg, 12:00 h post-dose
[27] = dabigatran etexilate 150 mg, 24:00 h post-dose
[28] = dabigatran etexilate 150 mg, between 1 and 6 h post-dose
[29] = dabigatran etexilate 600 mg, 1:00 h post-dose
[30] = dabigatran etexilate 600 mg, 1:30 h post-dose
[31] = dabigatran etexilate 600 mg, 2:00 h post-dose
[32] = dabigatran etexilate 600 mg, 3:00 h post-dose
[33] = dabigatran etexilate 600 mg, 6:00 h post-dose
[34] = dabigatran etexilate 600 mg, 12:00 h post-dose
[35] = dabigatran etexilate 600 mg, 24:00 h post-dose
[36] = dabigatran etexilate 600 mg, between 1 and 6 h post-dose

## CCCCCCOC(=O)NC(=N)c1ccc(NCc2nc3cc(C(=O)N(CCC(=O)O)c4ccccn4)ccc3n2C)cc1 [BIBR1087]
[1]
  detectability in plasma: only detectable between 0.5 and 3 h post-dosing and then only in very low concentrations

## CCOC(=O)CCN(C(=O)c1ccc2c(c1)nc(CNc1ccc(C(=N)N)cc1)n2C)c1ccccn1 [BIBR951]
[1]
  detectability in plasma: only detectable between 0.5 and 3 h post-dosing and then only in very low concentrations

## [H]/N=C(/N)c1ccc(NCc2nc3cc(C(=O)N(CCC(=O)O)c4ccccn4)ccc3n2C)cc1 [dabigatran]
[2]
  changes in QT interval: no noteworthy changes in QT interval
[3]
  half-life: 12 to 17 h
[4]
  effect on hERG-mediated potassium current: did not modify the hERG-mediated potassium current
Anaesthetised pigs
  influence on cardiovascular parameters: no influence on cardiovascular parameters
Healthy subjects [5]; [12]
  Predicted value of ∆∆HR at Cmax (90 % CI): 0.3 (−0.4 to 1.0) bpm
  Predicted value of ∆∆QTcI at Cmax (90 % CI): 0.4 (−0.9 to 1.7) ms
Healthy subjects [5]; [13]
  Predicted value of ∆∆HR at Cmax (90 % CI): 0.4 (−0.9 to 1.7) bpm
  Predicted value of ∆∆QTcI at Cmax (90 % CI): 0.5 (−1.5 to 2.6) ms
Healthy subjects [5]; [14]
  PK-∆∆HR intercept: 0.26 bpm
  PK-∆∆HR slope: 0.0005 bpm/[ng/mL]
Healthy subjects [5]; [15]
  PK-∆∆QTcI intercept: 0.34 ms
  PK-∆∆QTcI slope: ~0 ms/[ng/mL]
Healthy subjects [5]; exposure-response analysis for placebo-corrected CfB of QTcI, post hoc, listed as Free non-conjugated dabigatran
  PK-∆∆QTcI slope: 0.0006 ms/[ng/mL]
Healthy subjects [5]; total and free dabigatran, each dose (all four analyses)
  90 % CI of the predicted value of placebo-corrected CfB of QTcI at gMean Cmax: below 3 ms
[1]; 150 mg
  AUC(0-inf): 540 ng·h/mL
  Cmax: 71.4 ng/mL
  Tmax: 2.03 h
[1]; 600 mg
  AUC(0-inf): 2230 ng·h/mL
  Cmax: 281 ng/mL
  Tmax: 3 h

## COc1c(N2C[C@@H]3CCCN[C@@H]3C2)c(F)cc2c(=O)c(C(=O)O)cn(C3CC3)c12 [Moxifloxacin, moxifloxacin]
Healthy subjects [6]; [16]
  ∆∆HR: 2.4 (0.9 to 3.8) bpm
  ∆∆QT: 8.3 (4.7 to 11.9) ms
  ∆∆QTcI: 11.1 (8.4 to 13.8) ms
Healthy subjects [6]; [17]
  ∆∆HR: 1.3 (0.1 to 2.5) bpm
  ∆∆QT: 11.9 (8.3 to 15.5) ms
  ∆∆QTcI: 12.8 (10.2 to 15.6) ms
Healthy subjects [6]; [18]
  ∆∆HR: 0.4 (−1.0 to 1.7) bpm
  ∆∆QT: 13.6 (10.4 to 16.9) ms
  ∆∆QTcI: 14.1 (11.7 to 16.5) ms
Healthy subjects [6]; moxifloxacin 400 mg, 2:00 h post-dose, listed as moxifloxacin
  ∆∆QTcI: 14.1 ms
Healthy subjects [6]; [19]
  ∆∆HR: 2.7 (1.1 to 4.4) bpm
  ∆∆QT: 10.3 (6.9 to 13.8) ms
  ∆∆QTcI: 14.1 (11.4 to 16.7) ms
Healthy subjects [6]; [20]
  ∆∆HR: 1.5 (0.1 to 2.8) bpm
  ∆∆QT: 9.2 (6.1 to 12.2) ms
  ∆∆QTcI: 10.4 (8.0 to 12.8) ms
Healthy subjects [6]; moxifloxacin 400 mg, placebo-corrected change from baseline between 1.5 and 3 h post-dose
  Mean (SE) [90 % CI] ∆∆ QTcI: 14.2 ms
Healthy subjects [7]; investigator-assessed
  Global tolerability (good / satisfactory / not satisfactory / bad): one subject who responded ‘not satisfactory’
Healthy subjects [7]; moxifloxacin 400 mg, one subject of 40 ('feeling dazed')
  subjects with adverse events within the treatment period: 2.5%
[8]
  time of peak plasma concentration: 1 to 4 h
Healthy subjects [9]
  QT-interval prolongation: 8 to 14 ms

## CCCCCCOC(=O)NC(=N)c1ccc(NCc2nc3cc(C(=O)N(CCC(=O)OCC)c4ccccn4)ccc3n2C)cc1 [Dabigatran etexilate]
Healthy subjects [6]; both dose levels (150 mg and 600 mg), 0.5 to 24 h post-dose
  upper bound of the two-sided 90 % CI of the largest time-matched mean difference from placebo (QTcI): 3 to 4 ms
Healthy subjects [6]; both doses (150 mg and 600 mg)
  upper limit of 95 % CI, secondary endpoints (QTcI versus placebo): below 4 ms
  upper limit of the 95 % CI, primary endpoint (QTcI versus placebo): approximately 1.5 ms
Healthy subjects [6]; dabigatran etexilate 150 mg single oral dose
  Adjusted mean (SE) ∆ QTcI: −4.9 (1.1) ms
Healthy subjects [6]; [21]
  ∆∆HR: 0.7 (−0.5 to 1.8) bpm
  ∆∆QTcI: −0.1 (−2.5 to 2.2) ms
Healthy subjects [6]; [22]
  ∆∆HR: −0.3 (−1.4 to 0.8) bpm
  ∆∆QT: −0.6 (−3.3 to 2.1) ms
  ∆∆QTcI: −1.4 (−3.2 to 0.4) ms
Healthy subjects [6]; [23]
  ∆∆HR: −0.3 (−1.5 to 0.8) bpm
  ∆∆QT: −0.2 (−2.9 to 2.6) ms
  ∆∆QTcI: −0.7 (−2.9 to 1.6) ms
Healthy subjects [6]; [24]
  ∆∆QT: −1.9 (−4.9 to 1.0) ms
  ∆∆QTcI: −1.1 (−3.3 to 1.2) ms
Healthy subjects [6]; [25]
  ∆∆QT: −0.5 (−3.8 to 2.7) ms
  ∆∆QTcI: −0.4 (−3.0 to 2.2) ms
Healthy subjects [6]; [26]
  ∆∆HR: −0.4 (−1.7 to 0.9) bpm
  ∆∆QT: 1.3 (−1.8 to 4.5) ms
  ∆∆QTcI: 0.9 (−1.7 to 3.5) ms
Healthy subjects [6]; [27]
  ∆∆HR: −0.1 (−1.1 to 1.0) bpm
  ∆∆QT: −0.2 (−2.8 to 2.5) ms
  ∆∆QTcI: −0.1 (−1.9 to 1.7) ms
Healthy subjects [6]; [28]
  mean time-matched CfB of QTcI: -5.3 ms
  upper bound of the two-sided 90 % CI of placebo-adjusted CfB of QTcI: 1.5 ms
Healthy subjects [6]; dabigatran etexilate 150 mg, between 1.5 and 3 h post-dose
  upper bound of the two-sided 90 % CI of placebo-adjusted CfB of QTcI: 1.4 ms
Healthy subjects [6]; dabigatran etexilate 600 mg single oral dose
  Adjusted mean (SE) ∆ QTcI: −5.0 (1.1) ms
Healthy subjects [6]; [29]
  ∆∆HR: 0.5 (−0.6 to 1.6) bpm
  ∆∆QT: −1.8 (−5.2 to 1.5) ms
  ∆∆QTcI: −1.5 (−3.8 to 0.9) ms
Healthy subjects [6]; [30]
  ∆∆HR: −0.3 (−1.5 to 0.8) bpm
  ∆∆QT: −0.6 (−3.3 to 2.1) ms
  ∆∆QTcI: −1.7 (−3.5 to 0.2) ms
Healthy subjects [6]; [31]
  ∆∆HR: −1.1 (−2.2 to 0.1) bpm
  ∆∆QT: −0.9 (−3.7 to 1.8) ms
  ∆∆QTcI: −2.6 (−4.8 to −0.4) ms
Healthy subjects [6]; [32]
  ∆∆HR: 1.5 (−0.1 to 2.9) bpm
  ∆∆QT: −2.9 (−5.8 to 0.1) ms
  ∆∆QTcI: −1.1 (−3.3 to 1.1) ms
Healthy subjects [6]; [33]
  ∆∆HR: 0.6 (−0.7 to 1.9) bpm
  ∆∆QT: −1.1 (−4.3 to 2.2) ms
  ∆∆QTcI: −0.8 (−3.4 to 1.8) ms
Healthy subjects [6]; [34]
  ∆∆HR: −0.2 (−1.5 to 1.1) bpm
  ∆∆QT: 1.0 (−2.1 to 4.2) ms
  ∆∆QTcI: 0.4 (−2.2 to 3.0) ms
Healthy subjects [6]; [35]
  ∆∆HR: 1.1 (0.0 to 2.2) bpm
  ∆∆QTcI: −1.6 (−3.4 to 0.2) ms
Healthy subjects [6]; [36]
  mean time-matched CfB of QTcI: -5.4 ms
  upper bound of the two-sided 90 % CI of placebo-adjusted CfB of QTcI: 1.4 ms
Healthy subjects [6]; dabigatran etexilate 600 mg, between 1.5 and 3 h post-dose
  upper bound of the two-sided 90 % CI of placebo-adjusted CfB of QTcI: 1.3 ms
Healthy subjects [6]; either dabigatran etexilate dose
  prolongation of QTcN, QTcF, uncorrected QT and QTcB: none of these parameters was prolonged
Healthy subjects [6]; overall study result
  prolongation of the QT interval: ≤ 5 ms
Healthy subjects [6]; therapeutic (150 mg) and supratherapeutic (600 mg) doses
  QT prolongation or arrhythmogenic effects (conclusion): not associated with QT prolongation or arrhythmogenic effects
[10]; patients receiving dabigatran etexilate 150 mg once daily
  steady-state concentration: 99.2 ng/mL
[10]; patients receiving dabigatran etexilate 150 mg twice daily
  steady-state concentration: 146 ng/mL
[11]
  increase in activated partial thromboplastin time: two- to threefold increase
Healthy subjects [7]; dabigatran etexilate 150 mg, three subjects of 40
  subjects with adverse events within the treatment period: 7.5%
Healthy subjects [7]; dabigatran etexilate 600 mg, four subjects of 40
  subjects with adverse events within the treatment period: 10%
Healthy subjects [7]; single oral doses of 150 mg and 600 mg
  tolerability: well tolerated
[1]
  detectability in plasma: only detectable between 0.5 and 3 h post-dosing and then only in very low concentrations
[1]; dabigatran etexilate 600 mg versus 150 mg
  Mean Cmax with 600 mg relative to 150 mg dose: approximately fourfold higher
[1]; versus patients receiving dabigatran etexilate 150 mg once daily
  Cmax after 600 mg relative to steady-state concentration in patients: 4 times
[1]; versus patients receiving dabigatran etexilate 150 mg twice daily
  Cmax after 600 mg relative to steady-state concentration in patients: 2.6 times
